Results: ChEMBL document CHEMBL4828732, “Synthesis and biological evaluation of selective survivin inhibitors derived from the MX-106 hydroxyquinoline scaffold” (Eur J Med Chem, 2021)
pIC50: −log10 of the molar value.

Experiments:
[1] = tested on: MDA-MB-435; assay: cells; settings: Homo sapiens, MDA-MB-435, 72 h
[2] = tested on: MDA-MB-435/LCC6MDR1; assay: cells; settings: Homo sapiens, MDA-MB-435, 72 h
[3] = tested on: SK-BR-3; assay: cells; settings: Homo sapiens, SK-BR-3, 72 h
[4] = tested on: MDA-MB-453; assay: cells; settings: Homo sapiens, MDA-MB-453, 72 h
[5] = Resistance index, ratio of IC50 for antiproliferation activity against human MDA-MB-435/LCC6MDR cells to IC50 for antiproliferation activity against human MDA-MB-435 cells assessed as cell growth inhibition measured after 72 hrs by MTS assay; assay type: functional
[6] = tested on: A-375; assay: cells; settings: Homo sapiens, A-375, 72 h
[7] = tested on: RPMI-7951; assay: cells; settings: Homo sapiens, RPMI-7951, 72 h

Row | SMILES | pIC50 [1] | pIC50 [2] | pIC50 [3] | pIC50 [4] | Ratio IC50 [5] | pIC50 [6] | pIC50 [7]
1 | Oc1c(CN2CCCC2)cc(Cn2ncc(-c3ccccc3)n2)c2cccnc12 | 5.30 | 6.22 | 5.40 | 5.54 | 0.1 | 5.70 | 5.51
2 | Cc1cccc(-c2cc(COCc3ccc(C(C)C)cc3)c3cccnc3c2O)c1 | 5.74 | 6.00 | 5.48 | 5.77 | 0.6 | 6.15 | 5.96
3 | Oc1c(CN2CCCC2)cc(COC2CCc3ccccc3C2)c2cccnc12 (configuration not stated) | 5.48 | 5.89 | 5.41 |  | 0.4 | 6.00 | 6.10
4 | O=[N+]([O-])c1ccc(-c2cnn(Cc3cc(CN4CCCC4)c(O)c4ncccc34)n2)cc1 | 5.39 | 5.96 | 5.44 | 5.39 | 0.3 | 6.15 | 6.15
5 | CC(C)c1ccc(COCc2cc(CN3CCCC3)c(O)c3ncccc23)cc1 | 5.46 | 5.68 | 5.64 | 5.80 | 0.6 | 6.00 | 5.96
6 | Cc1ccc(-c2cnn(Cc3cc(CN4CCCC4)c(O)c4ncccc34)n2)cc1 | 5.70 | 6.15 | 5.54 | 5.54 | 0.4 |  | 6.22
7 | CC(C)c1ccc(COCc2cc(-c3ccsc3)c(O)c3ncccc23)cc1 | 5.96 | 6.05 | 6.10 | 6.22 | 0.9 | 6.22 | 6.30
8 | CCc1ccc(-c2cnn(Cc3cc(CN4CCCC4)c(O)c4ncccc34)n2)cc1 | 5.49 | 6.00 | 5.48 | 5.48 | 0.3 | 6.15 | 6.15
9 | Oc1c(CN2CCNCC2)cc(Cn2ncc(-c3ccc(Br)cc3)n2)c2cccnc12 | 5.33 | 5.29 | 5.62 | 5.70 | 1.1 | 6.10 | 6.22
10 | Oc1c(CN2CCCC2)cc(COC2Cc3ccccc3C2)c2cccnc12 | 5.66 | 5.66 | 5.23 | 5.62 | 1 | 5.72 | 5.89
11 | Oc1c(CN2CCCC2)cc(Cn2ncc(-c3ccc(OCc4ccccc4)cc3)n2)c2cccnc12 | 5.49 | 5.66 | 5.57 | 5.74 | 0.7 | 6.05 | 6.22
12 | Oc1c(CN2CCCC2)cc(Cn2cnc(-c3ccccc3)c2)c2cccnc12 | 5.05 | 5.89 | 5.16 | 5.51 | 0.1 | 5.66 | 5.55
13 | Oc1c(CN2CCOCC2)cc(Cn2ncc(-c3ccc(Br)cc3)n2)c2cccnc12 | 5.62 | 6.05 | 5.52 | 5.62 | 0.4 | 6.00 | 6.15
14 | COCC[n+]1c2c(n(Cc3cnccn3)c1C)C(=O)c1ccccc1C2=O.[Br-] [SEPANTRONIUM BROMIDE] |  | < 6.00 |  |  | >425 |  | 
15 | Oc1c(CN2CCCC2)cc(Cn2ncc(-c3ccccc3Br)n2)c2cccnc12 | 5.62 | 6.30 | 5.52 | 5.51 | 0.2 | 6.15 | 6.15
16 | CCN(CC)Cc1cc(Cn2ncc(-c3ccc(C(F)(F)F)cc3)n2)c2cccnc2c1O | 5.42 | 5.77 | 5.40 | 5.21 | 0.5 | 6.00 | 5.72
17 | Cc1ccc(-c2cc(COCc3ccc(C(C)C)cc3)c3cccnc3c2O)cc1 | 5.74 | 5.64 | 5.80 | 6.05 | 1.3 | 6.10 | 6.15
18 | Oc1c(CN2CCCC2)cc(Cn2ncc(-c3ccsc3)n2)c2cccnc12 | 5.32 | 5.80 | 5.57 | 5.66 | 0.3 | 5.96 | 5.89
19 | N#Cc1ccc(-c2cnn(Cc3cc(CN4CCCC4)c(O)c4ncccc34)n2)cc1 | 5.23 | 5.74 | 5.22 | 5.39 | 0.3 | 6.00 | 6.10
20 | Oc1c(CN2CCCCCC2)cc(Cn2ncc(-c3ccc(C(F)(F)F)cc3)n2)c2cccnc12 | 5.51 | 5.80 | 5.38 | 5.20 | 0.5 | 6.05 | 5.68
21 | Oc1c(CN2CCCC2)cc(Cn2ncc(-c3ccc(C(F)(F)F)cc3)n2)c2cccnc12 | 5.39 | 5.96 | 5.49 | 5.46 | 0.3 | 6.10 | 5.80
22 | CC(C)c1ccc(COCc2cc(-c3ccc(C(F)(F)F)cc3)c(O)c3ncccc23)cc1 | 5.72 | 5.92 | 5.24 | 5.36 | 0.6 | 6.05 | 5.89
23 | COc1ccc(-c2cc(COCc3ccc(C(C)C)cc3)c3cccnc3c2O)cc1 | 5.72 | 5.52 | 5.89 | 6.10 | 1.6 | 6.10 | 6.22
24 | COc1ccc(-c2cnn(Cc3cc(CN4CCCC4)c(O)c4ncccc34)n2)cc1 | 5.41 | 5.85 | 5.55 | 5.66 | 0.3 | 6.05 | 6.05
25 | CC(C)c1ccc(COCc2cc(Br)c(O)c3ncccc23)cc1 | 5.68 | 6.70 | 5.24 | 5.89 | 0.1 | 6.00 | 6.10
26 | CC(C)c1ccc(-c2cnn(Cc3cc(CN4CCCC4)c(O)c4ncccc34)n2)cc1 | 5.34 | 5.77 | 5.31 | 5.23 | 0.4 | 5.96 | 5.64
27 | CC(C)c1ccc(COCc2cc(-c3ccnc4ccccc34)c(O)c3ncccc23)cc1 | 5.92 | 6.00 | 5.51 | 5.77 | 0.8 | 6.10 | 6.15
